From patent US7470707B2, “Crystalline monohydrate clopidogrel naphthalenedisulfonate and process of preparation” (Hanmi Pharm. Co., Ltd, priority 2004, dated 2008)
Where a name gives a salt, the structure may show the parent alone. Read-outs that look alike come from different tables or passages of the source.

Assays:
[1] = 60±2° C., 75±5% relative humidity
Procedure: The assay of the acid addition salt of clopidogrel was measured using HPLC condition A, the amount of hydrolyzed impurities of the acid addition salt of clopidogrel was measured using HPLC condition B, the optical purity of the acid addition salt of clopidogrel (i.e., the amount of the levorotatory isomers) was measured using the HPLC condition C, and the water content of the acid addition salt of clopidogrel was measured with a Karl-Fisher titrator.

[2] = test system: platelet aggregation induced by adenosine-diphosphate (ADP); conditions: ADP (5 μM), PRP of female Sprague-Dawley rats after oral dose corresponding to clopidogrel 15.3 mg/kg
Procedure: (§1) The pharmacological activities for preventing platelet aggregation of the clopidogrel hydrogen sulfate obtained in Comparative Example 1, and the inventive clopidogrel 2-naphthalenesulfonate and clopidogrel 1,5-naphthalenedisulfonate monohydrate obtained in Examples 1 and 2, respectively, were tested using rat blood in accordance with the standard method (see Born G.V.R & Cross, J. Physiol. 168: 178-195, 1963; 0. Takahashi, Food & Chemical Toxicology 38: 203-218, 2000). The platelet aggregation inhibition test was performed ex vivo, and the inhibitory activities of the acid addition salts against platelets aggregation induced by adenosine-diphosphate (ADP), collagen and thrombin, respectively, were measured.
(§2) Twenty 11 to 12-weeks old female Sprague-Dawley rats (average weight: 270±25 g) were divided into four groups each consisting of five rats, and each group of rats was orally administered with 20.0 mg/kg of clopidogrel hydrogen sulfate (15.3 mg/kg as clopidogrel), 25.2 mg/kg of clopidogrel 2-naphthalenesulfonate, and 22.6 mg/kg of clopidogrel 1,5-naphthalenedisulfonate monohydrate dissolved in 1% DMSO based on a volume of 10 ml/kg body weight. For the control group of rats, only 1% DMSO solution was administered.
(§3) Blood samples were taken using a syringe pre-charged with 3.8% citric acid solution from the abdominal artery of the animals under anesthesia, and the blood samples were centrifuged at 4° C. and 1,000 rpm for 10 minutes to separate platelet-rich plasma (PRP). The separated plasma was further centrifuged four times at 4° C. and 1,000 rpm to obtain PRP for test. A portion of PRP was further centrifuged at 4° C. and 3,000 rpm for 10 minutes to prepare precipitated platelet, and the precipitated platelet was washed with a buffer (138 mM NaCl, 2.7 mM KCl, 12 mM NaHCO3, 0.36 mM NaH2PO4, 5.5 mM glucose, 1 mM EDTA: pH 6.5). Then, the platelet was suspended in a buffer (138 mM NaCl, 2.7 mM KCl, 12 mM NaHCO3, 0.36 mM NaH2PO4, 0.49 mM MgCl2, 0.25% gelatin, 5.5 mM glucose: pH 7.4) such that the optical density (OD) value at 260 nm corresponded to a number of platelet which is about 1×10^8.
(§4) To induce platelet aggregation, ADP standard solution was added to the above PRP to determine the concentration until the final concentration of the ADP became 5 μM. Further, a collagen standard solution (final concentration 5 μg/ml) and thrombin standard solution (final concentration 0.1 U/ml) was added to the above washing platelet solution to induce platelet aggregation. Each of the samples was stirred at 37° C. and 900 rpm to measure the amount of platelet aggregation using a aggregometer (Chrono-log Platelet Aggregometer). The degrees of platelet aggregation and inhibition were calculated using formulae 1 and 2, and the results are shown in Table 8. Degree of aggregation (%)=[(measured aggregation height)/(aggregation height when 100% was aggregated)]×100 <Formula 1> Degree of inhibition (%)=[(aggregation height of control group)−(aggregation height of drug administration group)]/(aggregation height of control group)×100 <Formula 2>

[3] = test system: platelet aggregation induced by collagen; conditions: Collagen (5 μg/ml), washed platelets of female Sprague-Dawley rats after oral dose corresponding to clopidogrel 15.3 mg/kg
Procedure: as §1, §2, §3, §4

[4] = test system: platelet aggregation induced by thrombin; conditions: Thrombin (0.1 U/ml), washed platelets of female Sprague-Dawley rats after oral dose corresponding to clopidogrel 15.3 mg/kg
Procedure: as §1, §2, §3, §4

[5] = Procedure: Effects on the bleeding time of the conventional clopidogrel hydrogen sulfate obtained in Comparative Example 1 and the inventive clopidogrel 2-naphthalenesulfonate and clopidogrel 1,5-naphthalenedisulfonate monohydrate obtained in Examples 1 and 2, respectively, were tested using rat in accordance with the standard method (see Dejana E & Villa S, Thromb. Haemostas. 48: 108-111, 1982). The bleeding time is an index representing the extent of thrombus formed by platelet aggregation and tests were performed using male and female rats.
Forty 11 to 12-weeks old male and female Sprague-Dawley rats (average weight: 270±25 g) were divided into four groups each consisting of five male rats and five female rats, and the male rats of the first group were each orally administered with 5.0 mg/kg of clopidogrel hydrogen sulfate (3.83 mg/kg as clopidogrel) and the female rats of the first group were each orally administered with 2.5 mg/kg (1.92 mg/kg as clopidogrel). For the second group, the male and female rats were orally each administered with 6.30 mg/kg and 3.15 mg/kg of clopidogrel 2-naphthalenesulfonate, respectively, and for the third group, the male and female rats were each orally administered with 5.65 mg/kg and 2.83 mg/kg of clopidogrel 1,5-naphthalenedisulfonate monohydrate, respectively. The drug was orally administered in the form of 1% DMSO solution in an amount in volume of 10 ml/kg body weight. As a comparison, only 1% DMSO solution was administered to the last group of rats.
After fixing an unanesthetized rat with an experimental holder, the tail of the rat was pierced at a position of 1.5 cm from the end of tail using a need of 26 G×½, 0.45×13 mm at a depth of 1 mm. The time of bleeding to cease was measured with absorbing the bleeding blood on a filter paper every 10 second.

[6] = Female Sprague-Dawley rats, oral dose corresponding to 1.92 mg/kg of clopidogrel
[7] = Male Sprague-Dawley rats, oral dose corresponding to 3.83 mg/kg of clopidogrel

| Compound | Water content ([1]; 0 day) [%] | Water content ([1]; 7 days) [%] | Water content ([1]; 14 days) [%] | Water content ([1]; 21 days) [%] | Water content ([1]; 28 days) [%] | Water content ([1]; 35 days) [%] | Aggregation ratio [2] [%] | Inhibition ratio [2] [%] | Aggregation ratio [3] [%] | Inhibition ratio [3] [%] | Aggregation ratio [4] [%] | Inhibition ratio [4] [%] | Bleeding time [5, 6] [s] | Bleeding time [5, 7] [s] | also measured |
| --- | --- | --- | --- | --- | --- | --- | --- | --- | --- | --- | --- | --- | --- | --- | --- |
| COC(=O)[C@H](c1ccccc1Cl)N1CCc2sccc2C1 [1,5-Naphthalenedisulfonate monohydrate, Clopidogrel 1,5-naphthalenedisulfonate Monohydrate] | – | – | – | – | – | – | – | – | – | – | – | – | – | – | Water content ([1]; 0 day, Monohydrate): 1.8%; Water content ([1]; 7 days, Monohydrate): 1.8%; Water content ([1]; 14 days, Monohydrate): 1.9%; Water content ([1]; 21 days, Monohydrate): 1.9%; Water content ([1]; 28 days, Monohydrate): 1.8%; Water content ([1]; 35 days, Monohydrate): 1.9%; Aggregation ratio ([2]; Monohydrate): 4.12 ± 0.14%; Inhibition ratio ([2]; Monohydrate): 88.5%; Aggregation ratio ([3]; Monohydrate): 3.75 ± 0.40%; Inhibition ratio ([3]; Monohydrate): 95.3%; Aggregation ratio ([4]; Monohydrate): 23.61 ± 1.43%; Inhibition ratio ([4]; Monohydrate): 71.5%; Bleeding time ([5]; Female Sprague-Dawley rats, oral dose corresponding to 1.92 mg/kg of clopidogrel, Monohydrate): 152.5 ± 3.5 s; Bleeding time ([5]; Male Sprague-Dawley rats, oral dose corresponding to 3.83 mg/kg of clopidogrel, Monohydrate): 163 ± 5.8 s |
| COC(=O)[C@H](c1ccccc1Cl)N1CCc2sccc2C1 [2-Naphthalenesulfonate, Clopidogrel 2-naphthalenesulfonate] | 0.1 | 0.1 | 0.1 | 0.1 | 0.1 | 0.1 | 2.94 ± 0.21 | 91.8 | 1.88 ± 0.25 | 97.9 | 15.00 ± 1.71 | 81.9 | 157 ± 10.6 | 190 ± 5.0 | – |
| COC(=O)[C@H](c1ccccc1Cl)N1CCc2sccc2C1 [Hydrogen sulfate, Clopidogrel Hydrogen Sulfate, reference compound] | 0.1 | 0.1 | 0.1 | 0.4 | 2.0 | 4.8 | 5.00 ± 0.60 | 86.1 | 12.19 ± 1.70 | 84.8 | 27.22 ± 1.52 | 67.1 | 127.5 ± 10.6 | 135 ± 8.7 | – |
